Measurements as given in patent US20190241569A1, “3-(ARYL OR HETEROARYL) METHYLENEINDOLIN-2-ONE DERIVATIVES AS INHIBITORS OF CANCER STEM CELL PATHWAY KINASES FOR THE TREATMENT OF CANCER” (Boston Biomedical, Inc., priority 2013, published 2019).
pIC50: −log10 of the molar value. Where two headings read alike, the source gives them in different places.

Assays:
Assay type in all cases: cell-based
ACHN CSC = assay: Cancer stem cells, Cell Titer-Glo 72 hours (Test Example 3); conditions: Homo sapiens, ACHN, 72 h
ACHN = assay: Bulk cancer cells, Cell Titer-Glo 72 hours (Test Example 2); conditions: Homo sapiens, ACHN, 72 h
Experimental: (§1) Tubes of 3× drug (60 uM in 500 uL complete media) were prepared from 5 mM stock solutions in DMSO. […] To treat cells, 50 uL of drug from the dilution plate was removed and added to the cell plates. […] Cells were harvested 72 hours after drug addition using Cell Titer-Glo (Promega) and luminescence measured on a plate reader.

A549 = assay: as above; conditions: Homo sapiens
Experimental: as §1

FaDu = assay: as above; conditions: Homo sapiens
Experimental: as §1

A549 CSC = assay: Cancer stem cells, Cell Titer-Glo 72 hours (Test Example 3); conditions: Homo sapiens
p-RPS6 Ser235/236 = assay: Kinase inhibition, Western blot in HeLa cells (Test Example 5); conditions: Homo sapiens, 6 hours, DMSO = 100, read-out: p-RPS6 Ser235/236 Relative Intensity (%)
Experimental: (§2) HeLa cells were treated with 5 uM of the indicated compound for 6 hours. Following compound incubation, cells were washed twice with ice-cold PBS and lysed in lysis buffer (50 mM HEPES, pH 7.5, 1% Nonidet P40, 150 mM NaCl, 1 mM EDTA, 1× protease inhibitor cocktail (Promega)). 30 micrograms of soluble protein was separated by SDS-PAGE and transferred to PVDF membranes. Primary antibodies against p-AMPK Thr172, p-RPS6 Ser235/236, p-RPS6 Ser240/244, and Tubulin (Cell Signaling Technology) were used. The antigen-antibody complexes were visualized by enhanced chemiluminescence (BioRad). The results are shown below in Tables 17A-17E.

p-RPS6 Ser240/244 = assay: as above; conditions: Homo sapiens, 6 hours, DMSO = 100, read-out: p-RPS6 Ser240/244 Relative Intensity (%)
Experimental: as §2

p-AMPK Thr172 = assay: as above; conditions: Homo sapiens, 6 hours, DMSO = 100, read-out: p-AMPK Relative Intensity (%)
Experimental: as §2

FaDu CSC = assay: Cancer stem cells, Cell Titer-Glo 72 hours (Test Example 3); conditions: Homo sapiens, FaDu, 72 h

Row | Structure (SMILES) | pIC50 (ACHN CSC) | pIC50 (ACHN) | pIC50 (A549) | pIC50 (FaDu) | pIC50 (A549 CSC) | activity at 5 µM (p-RPS6 Ser235/236; 5 uM compound, Western blot) | activity at 5 µM (p-RPS6 Ser240/244; 5 uM compound, Western blot) | activity at 5 µM (p-AMPK Thr172; 5 uM compound, Western blot) | pIC50 (FaDu CSC) | activity at 5 µM (p-RPS6 Ser235/236; 5 uM) | activity at 5 µM (p-RPS6 Ser240/244; 5 uM) | activity at 5 µM (p-AMPK Thr172; 5 uM)
1 | Cc1cc(C)c(/C=C2\C(=O)Nc3cccc(-c4ccc5cc[nH]c5c4)c32)[nH]1 [Example 273] | 4.72 | 4.69 | 4.78 | 4.79 | 4.69 | 36% | 35% | 27% |  |  |  | 
2 | Cc1cc(C)c(/C=C2\C(=O)Nc3c2cccc3-c2ccncc2)[nH]1 [Example 281] |  |  | 4.63 |  |  | 68% | 65% | 83% |  |  |  | 
3 | CCN(CC)CCNC(=O)c1c(C)[nH]c(/C=C2\C(=O)Nc3ccc(-c4cccnc4)cc32)c1C [Example 210] | 5.97 | 5.88 | 6.08 | 5.55 | 5.41 |  |  |  | 5.37 | 1% | 31% | 8%
4 | Cc1[nH]c(/C=C2\C(=O)Nc3cc(-c4csc(-c5ccccc5)n4)ccc32)c(C)c1C(=O)N1CCOCC1 [Example 36] |  |  |  |  |  |  |  |  | 4.38 | 4% | 44% | 118%
5 | Cc1[nH]c(/C=C2\C(=O)Nc3ccc(-c4csc(-c5ccccc5)n4)nc32)c(C)c1C(=O)NCCN1CCCC1 [Example 119] | 6.40 | 5.82 | 5.84 | 5.76 | 5.61 |  |  |  | 6.77 | 13% | 51% | 41%
6 | Cc1cc(C)c(/C=C2\C(=O)Nc3ccc(-c4ccc5cn[nH]c(=O)c5c4)cc32)[nH]1 [Example 240] | 6.59 | 5.95 | 5.85 | 5.59 | 5.52 |  |  |  | 5.53 | 1% | 24% | 39%
7 | CCN(CC)CCNC(=O)c1c(C)[nH]c(/C=C2\C(=O)Nc3c2cccc3-c2ccc3cc[nH]c3c2)c1C [Example 285] | 5.73 | 5.52 | 5.54 | 5.56 | 5.41 | 29% | 44% | 39% | 5.69 |  |  | 
8 | Cc1cc(C)c(/C=C2\C(=O)Nc3cccc(-c4ccncc4)c32)[nH]1 [Example 272] | 4.79 | 4.70 | 4.88 | 4.71 | 4.52 | 50% | 47% | 75% | 4.91 |  |  | 
9 | Cc1cc(C)c(/C=C2\C(=O)Nc3c2cccc3-c2cncc3ccccc23)[nH]1 [Example 279] |  | 4.68 | 4.71 | 4.59 |  | 86% | 83% | 108% |  |  |  | 
10 | CCN(CC)CCNC(=O)c1c(C)[nH]c(/C=C2\C(=O)Nc3ccc(-c4csc(-c5ccc(O)cc5)n4)cc32)c1C [Example 126] | 6.30 | 5.86 | 5.51 | 6.15 | 5.16 |  |  |  | 5.73 | 79% | 88% | 47%
11 | Cc1nc(-c2ccccc2)oc1-c1ccc2c(c1)NC(=O)/C2=C\c1[nH]c(C)c(C(=O)N2CCN(C)CC2)c1C [Example 38] | 6.30 |  |  |  |  |  |  |  | 5.80 | 2% | 21% | 103%
12 | Cc1[nH]c(/C=C2\C(=O)Nc3c2cccc3-c2csc(-c3ccccc3)n2)c(C)c1C(=O)N1CCN(C)CC1 [Example 10] | 6.30 | 4.82 | 5.27 | 5.27 | 5.38 |  |  |  | 5.52 | 2% | 32% | 122%
13 | Cc1[nH]c(/C=C2\C(=O)Nc3cc(-c4csc(-c5ccccc5)n4)ccc32)c(C)c1C(=O)N1CCN(C)CC1 [Example 8] | 6.41 | 4.94 | 4.58 | 5.32 | 5.91 |  |  |  | 5.99 | 33% | 73% | 150%
14 | Cc1cc(C)c(/C=C2\C(=O)Nc3cccc(-c4cncnc4)c32)[nH]1 [Example 278] |  | 4.77 | 4.79 | 4.40 |  | 44% | 43% | 198% |  |  |  | 
15 | CCN(CC)CCNC(=O)c1c(C)[nH]c(/C=C2\C(=O)Nc3c2cccc3-c2cccnc2OC)c1C [Example 286] | 5.57 | 5.44 | 5.27 | 5.42 | 5.16 | 48% | 54% | 31% | 5.72 |  |  | 
16 | COC(=O)c1c(C)[nH]c(/C=C2\C(=O)Nc3ccc(-c4csc(C5CCNCC5)n4)cc32)c1C [Example 144] |  | 6.28 | 6.15 | 6.16 | 5.61 |  |  |  | 6.66 | 70% | 83% | 79%
17 | CCN(CC)CCNC(=O)c1c(C)[nH]c(/C=C2\C(=O)Nc3cc(-c4oc(-c5ccccc5)nc4C)ccc32)c1C [Example 37] | 5.78 | 5.53 | 5.13 | 5.45 |  |  |  |  | 5.09 | 4% | 43% | 151%
18 | COc1ncc(-c2cccc3c2NC(=O)/C3=C\c2[nH]c(C)cc2C)cn1 [Example 275] | 4.76 | 4.66 | 4.75 | 4.68 | 4.46 | 57% | 54% | 96% |  |  |  | 
19 | CCN(CC)CCNC(=O)c1c(C)[nH]c(/C=C2\C(=O)Nc3ccc(-c4ccc(-c5cccs5)s4)cc32)c1C [Example 27] |  |  |  | 5.60 |  |  |  |  | 6.08 | 5% | 41% | 21%
20 | COc1ncc(-c2cccc3c2/C(=C/c2[nH]c(C)cc2C)C(=O)N3)cn1 [Example 277] |  | 4.55 | 4.68 | 4.45 |  | 77% | 75% | 145% |  |  |  | 
21 | COc1ccc(-c2cccc3c2NC(=O)/C3=C\c2[nH]c(C)cc2C)cn1 [Example 274] |  | 4.55 | 4.61 | 4.55 | 4.36 | 63% | 59% | 91% |  |  |  | 
22 | Cc1cc(C)c(/C=C2\C(=O)Nc3c2cccc3-c2cncnc2)[nH]1 [Example 276] |  | 4.57 | 4.60 | 4.55 |  | 51% | 50% | 113% |  |  |  | 
23 | Cc1cncc(-c2cccc3c2NC(=O)/C3=C\c2[nH]c(C)cc2C)c1 [Example 280] | 4.49 | 4.80 | 4.67 | 4.58 | 4.49 | 74% | 75% | 103% |  |  |  | 
24 | CCN(CC)CCNC(=O)c1c(C)[nH]c(/C=C2\C(=O)Nc3cc(-c4ccc(-c5ccccc5)s4)ccc32)c1C [Example 15] |  |  |  |  |  |  |  |  | 4.52 | 5% | 56% | 150%
25 | Cc1[nH]c(/C=C2\C(=O)Nc3cccc(-c4ccc(-c5ccccc5)cc4)c32)c(C)c1C(=O)N1CCN(C)CC1 [Example 110] |  | 4.83 | 4.67 | 5.12 | 5.24 |  |  |  | 5.92 | 2% | 36% | 105%
26 | CCN(CC)CCNC(=O)c1c(C)[nH]c(/C=C2\C(=O)Nc3ccc(-c4nc(-c5ccccc5)cs4)cc32)c1C [Example 51, (Z)-N-(2-(diethylamino)ethyl)-2,4-dimethyl-5-((2-oxo-5-(4-phenylthiazol-2-yl)indolin-3-ylidene)methyl)-1H-pyrrole-3-carboxamide] |  | 5.79 | 5.32 | 5.93 | 5.37 |  |  |  | 6.57 | 21% | 64% | 12%
